Test results as given in US20240391954A1, “MC4R AGONIST PEPTIDES” (The Regents of the University of Michigan, priority 2021, published 2024).
Read-outs that look alike come from different tables or passages of the source. Positions of bridges follow the written chain, without caps; N, C: chain ends. Non-standard residues stand in square brackets, D forms with d. Residues, ends and D or L forms follow the SMILES beside them. dPhe(4-tBu) = CC(C)(C)c1ccc(C[C@@H](N)C(=O)O)cc1; dPhe(4-Br) = N[C@H](Cc1ccc(Br)cc1)C(=O)O; d(hPhe) = N[C@H](CCc1ccccc1)C(=O)O; NMeR = CN[C@@H](CCCNC(=N)N)C(=O)O; hCit = NC(=O)NCCCC[C@H](N)C(=O)O; Cit = NC(=O)NCCC[C@H](N)C(=O)O; Nle = CCCC[C@H](N)C(=O)O

Assays:
human MC4R = molecular target: T1, human MC4R (Homo sapiens, UniProt P32245); assay: split-luciferase cAMP sensor assay, agonist mode (measurement window 1), hMC4R; assay type: cell-based; settings: for Emax: read-out: MC4R cAMP % max activation; for EC50: read-out: MC4R cAMP EC50
T1 construct: host or cells: HEK-293 cells stably expressing the GScAMP22F split-luciferase cAMP sensor and hMC4R, G418 selection
T1 sequence (P32245 whole entry): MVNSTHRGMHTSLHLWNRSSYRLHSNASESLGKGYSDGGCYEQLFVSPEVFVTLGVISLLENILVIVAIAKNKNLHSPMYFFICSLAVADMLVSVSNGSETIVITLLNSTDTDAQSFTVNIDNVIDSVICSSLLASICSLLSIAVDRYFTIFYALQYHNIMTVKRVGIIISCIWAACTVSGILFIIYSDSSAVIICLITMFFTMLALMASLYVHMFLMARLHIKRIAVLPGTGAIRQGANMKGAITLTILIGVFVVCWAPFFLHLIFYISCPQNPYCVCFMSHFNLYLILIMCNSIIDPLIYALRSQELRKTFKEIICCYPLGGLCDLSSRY
Method: (§1) The stable cell lines were grown and maintained in selection media consisting of Dulbecco's modified Eagle media (DMEM) with 4.5 g/l D-glucose, and 4 mM L-glutamine (Thermo Fisher Scientific, Waltham, MA), supplemented with 10% fetal bovine serum, 100 units/ml penicillin, 100 μg/ml streptomycin, 2.5 μg/ml amphotericin B, 200 μg/ml hygromycin B (for positive selection of the GScAMP22f luciferase reporter), and Geneticin™ (G418) 700 μg/ml (for MC3R or MC4R selection). Actual serum concentration during the assay is estimated to be about 1%. Cell line identity is routinely verified by qPCR and MC3R-and MC4R-specific oligonucleotides.
(§2) The assay for the determination of the cAMP response in live cells was described previously. […] Cells were seeded at a density of 20,000 cells per well using 384-well poly-D lysine-coated, clear bottom, and black-wall assay plates (Corning Inc. Corning, NJ). Cells were allowed to attach to the plates for 18 to 24 h after which growth media was removed and 20 μl of 4% D-luciferin (Promega) in CO2 independent, serum-free medium (Thermo Fisher Scientific) was added to each well. […] Intracellular cAMP levels were measured using an FDSS 7000EX Functional Drug Screening System (Hamamatsu Photonics, Hamamatsu, Japan) in the Center for Chemical Genomics at the Life Sciences Institute. This instrument allowed the in-line addition of test-peptides and receptor agonists while simultaneously acquiring the luminescence signal from live cells. […] A submaximal forskolin (20 μM) concentration was also included to serve as a normalization reference to account for cell number variations and differences in assay transducer efficiency between cell lines.
(§3) With this set up it was possible to evaluate the direct effect of the test-peptides on the MC3R and MC4R cell lines during measurement window 1, while the antagonist profile in the presence of EC90 α-MSH was determined on measurement window 2. […] EC50 or IC50 potency values were determined by non-linear regression by fitting the data to a sigmoid four-parameter variable slope model using the GraphPad Prism version 8.4 software package (San Diego CA).

human MC3R = molecular target: T2, human MC3R (Homo sapiens, UniProt P41968); assay: split-luciferase cAMP sensor assay, agonist mode (measurement window 1), hMC3R; assay type: cell-based; settings: agonist mode; for Emax: read-out: MC3R cAMP % max activation; for EC50: read-out: MC3R cAMP EC50
T2 construct: expressed in transfected cells; host or cells: HEK-293 cells stably expressing the GScAMP22F split-luciferase cAMP sensor (parent reporter line from Promega); MC3R clone generated in-house, G418 selection
T2 sequence (P41968 whole entry): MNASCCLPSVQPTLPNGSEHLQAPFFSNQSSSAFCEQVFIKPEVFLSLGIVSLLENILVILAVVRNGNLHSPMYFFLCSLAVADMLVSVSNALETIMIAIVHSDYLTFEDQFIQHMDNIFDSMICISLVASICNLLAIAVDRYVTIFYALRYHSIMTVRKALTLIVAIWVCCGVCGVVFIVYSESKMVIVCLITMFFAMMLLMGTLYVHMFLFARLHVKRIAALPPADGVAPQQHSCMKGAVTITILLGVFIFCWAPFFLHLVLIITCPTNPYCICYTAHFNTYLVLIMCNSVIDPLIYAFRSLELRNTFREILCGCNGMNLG
Method: as §1, §2, §3

[1] = % maximal activation, agonist mode
[2] = agonist mode, hMC4R stable cell line
[3] = HEK-293 cells stably expressing hMC4R, agonist mode

Structure (SMILES)	Emax (human MC4R; [1]) [%]	MC4R selectivity vs MC1R (human MC4R)	MC4R selectivity vs MC3R (human MC4R)	Emax (human MC4R; [2]) [%]	Emax (human MC3R; hMC3R stable cell line) [%]	further results
CC(=O)N[C@@H](CCCNC(=N)N)C(=O)N[C@H]1CSSC[C@@H](C(N)=O)NC(=O)[C@@H](Cc2c[nH]c3ccccc23)NC(=O)[C@H](CCCNC(=N)N)NC(=O)[C@@H](Cc2ccccc2)NC(=O)[C@H](CCCNC(N)=O)NC(=O)[C@H](C)NC1=O [CTX-1288, Arg-cyclo(Cys-Ala-Cit-D-Phe-Arg-D-Trp-Cys)] (Ac-RCA[Cit][dF]R[dW]C-NH2; disulfide 2-8)	87	–	–	–	–	–
CCCC[C@H](NC(=O)[C@H](CCCNC(=N)N)NC(C)=O)C(=O)N[C@H]1CSSC[C@@H](C(N)=O)NC(=O)[C@H](Cc2c[nH]c3ccccc23)NC(=O)[C@H](CCCNC(=N)N)NC(=O)[C@@H](Cc2ccc(OC)cc2)NC(=O)[C@H](CCCNC(=N)N)NC1=O [CTX-1614, Arg-Nle-cyclo(Cys-Arg-D-Tyr(4-OMe)-Arg-Trp-Cys)] (Ac-R[Nle]CR[dY](Me)RWC-NH2; disulfide 3-8 (inferred))	–	0.08	1.89	41	28	EC50 (human MC4R; [2]): 1.7 nM
CC(=O)N[C@@H](CCCNC(=N)N)C(=O)N[C@H]1CSSC[C@@H](C(N)=O)NC(=O)[C@@H](Cc2c[nH]c3ccccc23)NC(=O)[C@H](CCCNC(=N)N)NC(=O)[C@@H](CCc2ccccc2)NC(=O)[C@H](CCCNC(=N)N)NC(=O)[C@@H](C)NC1=O [CTX-1277, Arg-cyclo(Cys-D-Ala-Arg-D-Hph-Arg-D-Trp-Cys)] (Ac-RC[dA]R[d(hPhe)]R[dW]C-NH2; disulfide 2-8 (inferred))	–	0.05	0.1	29	5.2	–
CC(=O)N[C@@H](CCCNC(=N)N)C(=O)N[C@H]1CSSC[C@@H](C(N)=O)NC(=O)[C@@H](Cc2c[nH]c3ccccc23)NC(=O)[C@H](CCCNC(=N)N)N(C)C(=O)[C@@H](Cc2ccc(Br)cc2)NC(=O)[C@H](CCCNC(=N)N)NC(=O)[C@@H](C)NC1=O [CTX-1251, Arg-cyclo(Cys-D-Ala-Arg-D-Phe(4-Br)-NMe-Arg-D-Trp-Cys)] (Ac-RC[dA]R[dPhe(4-Br)][NMeR][dW]C-NH2; disulfide 2-8)	–	0.11	3.73	31	30	–
CC(=O)N[C@@H](CCCNC(=N)N)C(=O)N[C@H]1CSSC[C@@H](C(N)=O)NC(=O)[C@@H](Cc2c[nH]c3ccccc23)NC(=O)[C@H](CCCNC(=N)N)NC(=O)[C@@H](CCc2ccccc2)NC(=O)[C@H](CCCNC(=N)N)NC(=O)[C@@H](C)NC1=O [CTX-1239, Arg-cyclo(Cys-D-Ala-Arg-D-Hph-Arg-D-Trp-Cys)] (Ac-RC[dA]R[d(hPhe)]R[dW]C-NH2; disulfide 2-8)	–	0.1	0.3	–	–	MC4R cAMP % max activation (human MC4R; [2]): (28%); MC3R cAMP % max activation (human MC3R; hMC3R stable cell line): (7.9%)
CCCC[C@H](NC(=O)[C@H](CCCNC(=N)N)NC(C)=O)C(=O)N[C@H]1CSSC[C@@H](C(N)=O)NC(=O)[C@H](Cc2c[nH]c3ccccc23)NC(=O)[C@H](CCCNC(=N)N)NC(=O)[C@@H](Cc2ccccc2)NC(=O)[C@H](CCCNC(N)=O)NC1=O [CTX-1607, Arg-Nle-cyclo(Cys-Cit-D-Phe-Arg-Trp-Cys)] (Ac-R[Nle]C[Cit][dF]RWC-NH2; disulfide 3-8 (inferred))	–	–	–	–	–	Emax (human MC3R; % maximal activation): 47%
CC(=O)N[C@@H](CCCNC(=N)N)C(=O)N[C@H]1CSSC[C@@H](C(N)=O)NC(=O)[C@@H](Cc2c[nH]c3ccccc23)NC(=O)[C@H](CCCNC(=N)N)NC(=O)[C@@H](Cc2ccc(Br)cc2)NC(=O)[C@H](CCCNC(=N)N)N(C)C(=O)[C@@H](C)NC1=O [CTX-1248, Arg-cyclo(Cys-D-Ala-NMe-Arg-D-Phe(4-Br)-Arg-D-Trp-Cys)] (Ac-RC[dA][NMeR][dPhe(4-Br)]R[dW]C-NH2; disulfide 2-8 (inferred))	–	1.31	1.36	47	18	EC50 (human MC4R; [2]): 2 nM; EC50 (human MC3R; hMC3R stable cell line): 2.8 nM
CC(=O)N[C@@H](CCCNC(=N)N)C(=O)N[C@H]1CSSC[C@@H](C(N)=O)NC(=O)[C@H](Cc2c[nH]c3ccccc23)NC(=O)[C@H](CCCNC(=N)N)NC(=O)[C@H](Cc2ccccc2)NC(=O)[C@H](Cc2c[nH]cn2)NC(=O)[C@@H](C)NC1=O [CTX-1213, Arg-cyclo(Cys-D-Ala-His-Phe-Arg-Trp-Cys)]	104	–	–	–	–	Emax (human MC3R; % maximal activation): 97%
CCCC[C@H](NC(=O)[C@H](CCCNC(=N)N)NC(C)=O)C(=O)N[C@H]1CSSC[C@@H](C(N)=O)NC(=O)[C@@H](Cc2c[nH]c3ccccc23)NC(=O)[C@H](CCCNC(=N)N)NC(=O)[C@@H](Cc2ccc(OC)cc2)NC(=O)[C@H](CCCNC(=N)N)NC1=O [CTX-1615, Arg-Nle-cyclo(Cys-Arg-D-Tyr(4-OMe)-Arg-D-Trp-Cys)] (Ac-R[Nle]CR[dY](Me)R[dW]C-NH2; disulfide 3-8)	–	0.26	2.14	68	55	EC50 (human MC4R; [2]): 13 nM; EC50 (human MC3R; hMC3R stable cell line): 27 nM
CC(=O)N[C@@H](CCCNC(=N)N)C(=O)N[C@H]1CSSC[C@@H](C(N)=O)NC(=O)[C@H](Cc2c[nH]c3ccccc23)NC(=O)[C@@H](CCCNC(=N)N)NC(=O)[C@@H](Cc2ccccc2)NC(=O)[C@H](CCCNC(=N)N)NC(=O)[C@@H](C)NC1=O [CTX-1282, Arg-cyclo(Cys-D-Ala-Arg-D-Phe-D-Arg-Trp-Cys)] (Ac-RC[dA]R[dF][dR]WC-NH2; disulfide 2-8 (inferred))	–	0.14	0.38	72	4.2	–
CC(=O)N[C@@H](CCCNC(=N)N)C(=O)N[C@H]1CSSC[C@@H](C(=O)N[C@@H](CCCNC(=N)N)C(=O)N[C@@H](Cc2ccccc2)C(N)=O)NC(=O)[C@@H](Cc2c[nH]c3ccccc23)NC(=O)[C@H](CCCNC(=N)N)NC(=O)[C@@H](Cc2ccc(Br)cc2)NC(=O)[C@H](CCCNC(=N)N)NC(=O)[C@@H](C)NC1=O [CTX-1220, Arg-cyclo(Cys-D-Ala-Arg-D-Phe(4-Br)-Arg-D-Trp-Cys)-Arg-Phe] (Ac-RC[dA]R[dPhe(4-Br)]R[dW]CRF-NH2; disulfide 2-8 (inferred))	–	1.53	3.82	76	21	–
CC(=O)N[C@@H](CCCNC(=N)N)C(=O)N[C@H]1CSSC[C@@H](C(N)=O)NC(=O)[C@@H](Cc2c[nH]c3ccccc23)NC(=O)[C@H](CCCNC(=N)N)NC(=O)[C@@H](Cc2ccc(C(C)(C)C)cc2)NC(=O)[C@H](CCCNC(=N)N)NC(=O)[C@@H](C)NC1=O [CTX-1242, Arg-cyclo(Cys-D-Ala-Arg-D-Phe(4-tBu)-Arg-D-Trp-Cys)] (Ac-RC[dA]R[dPhe(4-tBu)]R[dW]C-NH2; disulfide 2-8 (inferred))	–	0.64	0.08	5.8	2.8	–
CCCC[C@H](NC(=O)[C@H](CCCNC(=N)N)NC(C)=O)C(=O)N[C@H]1CSSC[C@@H](C(N)=O)NC(=O)[C@H](Cc2ccccc2)NC(=O)[C@H](CCCNC(=N)N)NC(=O)[C@@H](Cc2ccccc2)NC(=O)[C@H](Cc2c[nH]cn2)NC1=O [CTX-1625, Arg-Nle-cyclo(Cys-His-D-Phe-Arg-Phe-Cys)] (Ac-R[Nle]CH[dF]RFC-NH2; disulfide 3-8)	101	–	–	–	–	–
CCCC[C@H](NC(=O)[C@H](CCCNC(=N)N)NC(C)=O)C(=O)N[C@H]1CSSC[C@@H](C(N)=O)NC(=O)[C@H](Cc2c[nH]c3ccccc23)NC(=O)[C@H](CCCNC(=N)N)NC(=O)[C@@H](Cc2ccccc2)NC(=O)[C@H](CCCCNC(N)=O)NC1=O [CTX-1618, Arg-Nle-cyclo(Cys-homo-Cit-D-Phe-Arg-Trp-Cys)] (Ac-R[Nle]C[hCit][dF]RWC-NH2; disulfide 3-8 (inferred))	94	–	–	–	–	EC50 (human MC4R; [3]): 1.8 nM
CC(=O)N[C@@H](CCCNC(=N)N)C(=O)N[C@H]1CSSC[C@@H](C(N)=O)NC(=O)[C@H](Cc2c[nH]c3ccccc23)NC(=O)[C@H](CCCNC(=N)N)NC(=O)[C@@H](Cc2ccccc2)NC(=O)[C@H](CCCNC(=N)N)NC(=O)CNC1=O [CTX-1293, Arg-cyclo(Cys-Gly-Arg-D-Phe-Arg-Trp-Cys)] (Ac-RCGR[dF]RWC-NH2; disulfide 2-8)	87	–	–	–	–	EC50 (human MC4R; [3]): 0.25 nM
